Laboratory results as given in PubChem BioAssay AID1919002 (Molecular Pharmacology Branch, DTP, NCI, 2023).

System: 743489-274-T-PDC complex spheroid growth
Experiment: Anticancer human tumor 743489-274-T-PDC patient-derived renal cell carcinoma cell line growth inhibition [AhR]
Settings: for IC50: curve of first compound; for viability, T/C: stronger effect = lower value
Summary of the method: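 Agents were dosed in half-log steps down from roughly clinical Cmax, or from 10 microM where Cmax was unknown, alone and with AhR antagonists. Read-out: percent test/control growth of tumor spheroids containing HUVEC and MSC stromal cells.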

[1] = second compound 0.1 µM, first compound 0.000949 µM
[2] = second compound 0.1 µM, first compound 0.003 µM
[3] = second compound 0.1 µM, first compound 0.00949 µM
[4] = second compound 0.1 µM, first compound 0.03 µM
[5] = second compound 0.1 µM, first compound 0.0949 µM
[6] = second compound 0.1 µM, first compound 0.3 µM
[7] = second compound 0.316 µM, first compound 0.000949 µM
[8] = second compound 0.316 µM, first compound 0.003 µM
[9] = second compound 0.316 µM, first compound 0.00949 µM
[10] = second compound 0.316 µM, first compound 0.03 µM
[11] = second compound 0.316 µM, first compound 0.0949 µM
[12] = second compound 0.316 µM, first compound 0.3 µM
[13] = second compound 1 µM, first compound 0.000949 µM
[14] = second compound 1 µM, first compound 0.003 µM
[15] = second compound 1 µM, first compound 0.00949 µM
[16] = second compound 1 µM, first compound 0.03 µM
[17] = second compound 1 µM, first compound 0.0949 µM
[18] = second compound 1 µM, first compound 0.3 µM
[19] = second compound 3.16 µM, first compound 0.000949 µM
[20] = second compound 3.16 µM, first compound 0.003 µM
[21] = second compound 3.16 µM, first compound 0.00949 µM
[22] = second compound 3.16 µM, first compound 0.03 µM
[23] = second compound 3.16 µM, first compound 0.0949 µM
[24] = second compound 3.16 µM, first compound 0.3 µM
[25] = second compound 10 µM, first compound 0.000949 µM
[26] = second compound 10 µM, first compound 0.003 µM
[27] = second compound 10 µM, first compound 0.00949 µM
[28] = second compound 10 µM, first compound 0.03 µM
[29] = second compound 10 µM, first compound 0.0949 µM
[30] = second compound 10 µM, first compound 0.3 µM
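Further: spheroids exposed to agents for 7 days before readout.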
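Wherever viability, T/C is given: 100% = DMSO vehicle control wells.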

CCc1c2c(nc3ccc(O)cc13)-c1cc3c(c(=O)n1C2)COC(=O)[C@]3(O)CC + Cc1cncc(-c2nc(NCCc3c[nH]c4ccccc34)c3ncn(C(C)C)c3n2)c1
IC50 (second compound 0.1 µM): > 300 nM | IC50 (second compound 0.316 µM): > 300 nM | IC50 (second compound 1 µM): > 300 nM | IC50 (second compound 3.16 µM): > 300 nM | IC50 (second compound 10 µM): > 300 nM | viability, T/C [1]: 106% | viability, T/C [2]: 103% | viability, T/C [3]: 97.1% | viability, T/C [4]: 89.1% | viability, T/C [5]: 79.4% | viability, T/C [6]: 76.6% | viability, T/C [7]: 98.8% | viability, T/C [8]: 95% | viability, T/C [9]: 98.5% | viability, T/C [10]: 82.2% | viability, T/C [11]: 69.5% | viability, T/C [12]: 64.6% | viability, T/C [13]: 102% | viability, T/C [14]: 106% | viability, T/C [15]: 110% | viability, T/C [16]: 79.9% | viability, T/C [17]: 94.8% | viability, T/C [18]: 66.6% | viability, T/C [19]: 113% | viability, T/C [20]: 102% | viability, T/C [21]: 98.6% | viability, T/C [22]: 80.7% | viability, T/C [23]: 73.1% | viability, T/C [24]: 73.9% | viability, T/C [25]: 131% | viability, T/C [26]: 135% | viability, T/C [27]: 128% | viability, T/C [28]: 102% | viability, T/C [29]: 95% | viability, T/C [30]: 68.4%

CC1COCCN1c1cc(-c2ccnn2C)c2ccnc(-c3ccn[nH]3)c2n1 (stereo not given) + Cc1ccccc1N=Nc1ccc(NC(=O)c2ccnn2C)c(C)c1
IC50 (second compound 0.1 µM): > 1000 nM | IC50 (second compound 0.316 µM): > 1000 nM | IC50 (second compound 1 µM): > 1000 nM | IC50 (second compound 3.16 µM): > 1000 nM | IC50 (second compound 10 µM): > 1000 nM | viability, T/C (second compound 0.1 µM, first compound 0.00316 µM): 92.8% | viability, T/C (second compound 0.1 µM, first compound 0.01 µM): 94.4% | viability, T/C (second compound 0.1 µM, first compound 0.0316 µM): 93.9% | viability, T/C (second compound 0.1 µM, first compound 0.1 µM): 95.9% | viability, T/C (second compound 0.1 µM, first compound 0.316 µM): 88.5% | viability, T/C (second compound 0.1 µM, first compound 1 µM): 78.4% | viability, T/C (second compound 0.316 µM, first compound 0.00316 µM): 89.7% | viability, T/C (second compound 0.316 µM, first compound 0.01 µM): 101% | viability, T/C (second compound 0.316 µM, first compound 0.0316 µM): 89.6% | viability, T/C (second compound 0.316 µM, first compound 0.1 µM): 93.3% | viability, T/C (second compound 0.316 µM, first compound 0.316 µM): 99.2% | viability, T/C (second compound 0.316 µM, first compound 1 µM): 75.3% | viability, T/C (second compound 1 µM, first compound 0.00316 µM): 93.4% | viability, T/C (second compound 1 µM, first compound 0.01 µM): 98.5% | viability, T/C (second compound 1 µM, first compound 0.0316 µM): 92% | viability, T/C (second compound 1 µM, first compound 0.1 µM): 86.5% | viability, T/C (second compound 1 µM, first compound 0.316 µM): 88.2% | viability, T/C (second compound 1 µM, first compound 1 µM): 68.1% | viability, T/C (second compound 3.16 µM, first compound 0.00316 µM): 87.6% | viability, T/C (second compound 3.16 µM, first compound 0.01 µM): 86.8% | viability, T/C (second compound 3.16 µM, first compound 0.0316 µM): 88% | viability, T/C (second compound 3.16 µM, first compound 0.1 µM): 82.8% | viability, T/C (second compound 3.16 µM, first compound 0.316 µM): 76.4% | viability, T/C (second compound 3.16 µM, first compound 1 µM): 76.3% | viability, T/C (second compound 10 µM, first compound 0.00316 µM): 103% | viability, T/C (second compound 10 µM, first compound 0.01 µM): 94.9% | viability, T/C (second compound 10 µM, first compound 0.0316 µM): 96.2% | viability, T/C (second compound 10 µM, first compound 0.1 µM): 84.9% | viability, T/C (second compound 10 µM, first compound 0.316 µM): 73.5% | viability, T/C (second compound 10 µM, first compound 1 µM): 58.6%

Nc1ncn(C2CC(O)C(CO)S2)c(=O)n1 (stereo not given) + Cc1ccccc1N=Nc1ccc(NC(=O)c2ccnn2C)c(C)c1
IC50 (second compound 0.1 µM): > 300 nM | IC50 (second compound 0.316 µM): > 300 nM | IC50 (second compound 1 µM): > 300 nM | IC50 (second compound 3.16 µM): > 300 nM | IC50 (second compound 10 µM): > 300 nM | viability, T/C [1]: 102% | viability, T/C [2]: 87.6% | viability, T/C [3]: 82.9% | viability, T/C [4]: 71.4% | viability, T/C [5]: 85.5% | viability, T/C [6]: 75.5% | viability, T/C [7]: 85.5% | viability, T/C [8]: 81.7% | viability, T/C [9]: 80.4% | viability, T/C [10]: 81.7% | viability, T/C [11]: 87.2% | viability, T/C [12]: 74.7% | viability, T/C [13]: 85.7% | viability, T/C [14]: 84.4% | viability, T/C [15]: 86.3% | viability, T/C [16]: 78.3% | viability, T/C [17]: 80.4% | viability, T/C [18]: 85.4% | viability, T/C [19]: 83.4% | viability, T/C [20]: 83.2% | viability, T/C [21]: 83.1% | viability, T/C [22]: 87% | viability, T/C [23]: 82.4% | viability, T/C [24]: 79.3% | viability, T/C [25]: 76% | viability, T/C [26]: 69.9% | viability, T/C [27]: 92.1% | viability, T/C [28]: 81.2% | viability, T/C [29]: 83.3% | viability, T/C [30]: 76.5%

CCN(c1cc(-c2ccc(CN3CCOCC3)cc2)cc(C(=O)NCc2c(C)cc(C)[nH]c2=O)c1C)C1CCOCC1 + Cc1cncc(-c2nc(NCCc3c[nH]c4ccccc34)c3ncn(C(C)C)c3n2)c1
IC50 (second compound 0.1 µM): > 3000 nM | IC50 (second compound 0.316 µM): > 3000 nM | IC50 (second compound 1 µM): > 3000 nM | IC50 (second compound 3.16 µM): > 3000 nM | IC50 (second compound 10 µM): > 3000 nM | viability, T/C [3]: 102% | viability, T/C [4]: 102% | viability, T/C [5]: 99.9% | viability, T/C [6]: 91.3% | viability, T/C (second compound 0.1 µM, first compound 0.949 µM): 92.7% | viability, T/C (second compound 0.1 µM, first compound 3 µM): 94.4% | viability, T/C [9]: 94.8% | viability, T/C [10]: 104% | viability, T/C [11]: 93.1% | viability, T/C [12]: 88.1% | viability, T/C (second compound 0.316 µM, first compound 0.949 µM): 85.9% | viability, T/C (second compound 0.316 µM, first compound 3 µM): 94% | viability, T/C [15]: 99.8% | viability, T/C [16]: 97.6% | viability, T/C [17]: 95.3% | viability, T/C [18]: 93% | viability, T/C (second compound 1 µM, first compound 0.949 µM): 104% | viability, T/C (second compound 1 µM, first compound 3 µM): 101% | viability, T/C [21]: 105% | viability, T/C [22]: 114% | viability, T/C [23]: 102% | viability, T/C [24]: 104% | viability, T/C (second compound 3.16 µM, first compound 0.949 µM): 102% | viability, T/C (second compound 3.16 µM, first compound 3 µM): 103% | viability, T/C [27]: 122% | viability, T/C [28]: 119% | viability, T/C [29]: 122% | viability, T/C [30]: 128% | viability, T/C (second compound 10 µM, first compound 0.949 µM): 127% | viability, T/C (second compound 10 µM, first compound 3 µM): 122%
